According to patent US20080280890A1, “HYDROXYLAMINE COMPOUNDS AND METHODS OF THEIR USE” (priority 2007, published 2008):
Counter-ions that a name gives are not always drawn.

Assays:
[1] = system: Angiogenesis in CAM model; assay: Neovascularization on the CAM (chick chorioallantoic membrane model of angiogenesis); format: in vivo, chicken; conditions: 30 ug; unit assumed
Description: In vivo neovascularization was examined by the method previously described by Auerbach et al. (J. Dev. Biol. 41:391-394 (1974)). Ten-day old chicken embryos were purchased from Spafas, Inc. (Preston, Conn.) and were incubated at 37° C. with 55% relative humidity. In the dark, with the aid of a candling lamp, a small hole was punctured in the shell concealing the air sac with a hypodermic needle. A second hole was punctured in the shell on the broadside of the egg directly over an […] portion of the embryonic membrane, as observed during candling. An artificial air sac was created beneath the second hole by applying gentle vacuum to the first hole using a small rubber squeeze bulb. The vacuum caused the chorioallantoic membrane (CAM) to separate from the shell.
A window, approximately 1.0 cm^2, was cut in the shell over the dropped CAM with the use of a small crafts grinding wheel (Dremel, Division of Emerson Electric Company Racine, Wis.). The window allowed direct access to the underlying CAM.
A pro-angiogenic agent was added to induce new blood vessel branches on the CAM of 10-day old embryos. Filter disks of #1 filter paper (Whatman International, United Kingdom) were punched using a small puncher and were soaked in 3 mg/mL cortisone acetate (Sigma, St. Louis, Mo.) in a solution (95% ethanol and water). The disks were subsequently air dried under sterile conditions. The disks were then suspended in PBS (Phosphate Buffered Saline) and placed on growing CAMs. Filters treated with TP-H (TEMPOL-H) or TEMPOL and/or H2O2 or TP-H and/or bFGF or VEGF were placed on the first day of the 3-day incubation.
For inducing angiogenesis, sterile filter disks were saturated with bFGF (1 μg/ml) (Life Technologies, Gaithersburg, Md.) or other pro-angiogenesis factors and control disks were saturated with PBS without Calcium and Magnesium. […]
Using sterile forceps one filter/CAM was placed from the window. The window was sealed with Highland brand transparent tape.
After 24-48 hr, 10-25 ul of test agent was injected intravenously or added topically into the CAM membrane. Eight-Ten eggs/treatment group were used.
CAM tissue directly beneath filter disk was harvested from embryos treated 48 hours prior with compound or control. Tissues were washed three times with PBS. Sections were placed in a 35-mm petri dish (Nalge Nunc, Rochester, N.Y.) and examined under a SV6 stereomicroscope (Karl Zeiss, Thornwood, N.Y.) at 50× magnification.
CAM sections from Petri dish were examined using SV6 stereomicroscope (Karl Zeiss) at 50× magnification. Digital images of CAM sections from Petri dish were collected using a 3-CCD color video camera system (Toshiba America, New York, N.Y.). These images were analyzed using Image-Pro Plus software (Media Cybernetics, Silver Spring, Md.).
The number of branch points in blood vessels within the circular region superimposed to the area of a filter disk was counted for each section. After incubation at 37° C. with 55% relative humidity for 3 days, the CAM tissue directly beneath each filter disk was resected from control and treated CAM samples. Tissues were washed three times with PBS. Sections were placed in a 35-mm Petri dish (Nalge Nunc; Rochester, N.Y.) and were examined under a SV6 stereomicroscope (Karl Zeiss; Thornwood, N.Y.) at 50× magnification. Digital images of CAM sections adjacent to filters were collected using a 3-CCD color video camera system (Toshiba America; New York, N.Y.) and analyzed with the Image-Pro Plus software (Media Cybernetics; Silver Spring, Md.).
The number of vessel branch points contained in a circular region equal to the area of a filter disk was counted for each section. Percent inhibition data are expressed as the quotient of the experimental value minus the negative control value divided by the difference between the positive control value and the negative control value. […]

[2] = system: Human neuroblastoma SKN-SH cells, resistant to doxorubicin; assay: Chemoresistance: cancer cell viability (MTT) in presence or absence of doxorubicin; format: cell-based; conditions: compound 50 ug/mL, MTT
From the text: A method for evaluating a compound's propensity to overcome cancer cell chemoresistance is described in “Caspase Inhibition Switches Doxorubicin-Induced Apoptosis To Senescence”, Abdelhadi Rebbaa, Xin Zheng, Pauline M Chou and Bernard L Mirkin, Oncogene (2003) 22, 2805-2811. Resistant human cancer cells to doxorubicin were selected by stepwise exposure to drug concentrations ranging from 10^−9 M-10^−6 M over 3 months. They were then subjected to treatment with the doxorubicin alone or in combination with hydroxylamine compounds 1-12, 16, 20, and 21 (Table 4). The cells were incubated with the drugs for 72 hours, and cell viability was measured by the MTT assay. Additionally, molecular pathways that might be associated with increased chemo-responsiveness with these compounds were investigated. p Cancer Cell Viability Data for certain hydroxylamines in the presence or absence of Doxorubicin is listed in Table 4.
A method for evaluating a compound's propensity to overcome cancer cell chemoresistance is described in “Caspase Inhibition Switches Doxorubicin-Induced Apoptosis To Senescence”, Abdelhadi Rebbaa, Xin Zheng, Pauline M Chou and Bernard L Mirkin, Oncogene (2003) 22, 2805-2811. Human neuroblastoma SKN-SH cells (ATCC Cat. No. HTB-11) were cultured in Dulbecco's Modified Eagles Medium (DMEM; Gibco, Grand Island, N.Y.) supplemented with 10% fetal bovine serum (FBS; Sigma-Aldrich, St. Louis, Mo.) at 37° C. in a 95% Air/5% CO2 atmosphere. Resistant human cancer cells to doxorubicin were selected by stepwise exposure to drug concentrations ranging from 10^−9M-10^−6M over 3 months. They were then subjected to treatment with the doxorubicin alone or in combination with hydroxylamine compounds. The cells were incubated with the drugs for 72 hours, and cell viability was measured by the MTT assay. This consists of adding 10 μl/well of MTT (5 mg/ml solution) and incubation for 4 h at 37° C. The precipitate formed is then solubilized by addition of 100 μl of HCL 0.5 N/Isopropanol and incubation for 15 hours at 37° C. The optical density is measured at 570 nm and cell survival is estimated by comparison to untreated cells. Each point represents 4 wells data represent average ± SE. Additionally, molecular pathways that might be associated with increased chemo-responsiveness with these compounds were investigated.
Cytotoxic activity of doxorubicin and hydroxylamine analogs were quantitatively determined by a colorimetric assay utilizing 3-(4,5-dimethyl-2-thiazolyl) 2,5-diphenyl tetrazolium bromide (MTT; Sigma-Aldrich, St. Louis, Mo.). Briefly, cells were seeded at 10^4 cells/well in 96-well plates and maintained in culture for 24 hours at 37° C. in DMEM supplemented with 10% FBS. Drugs were added to designated wells and cells were incubated for […], following which MTT (10 μL of 5 mg/ml solution) was added to each 100 μl well and incubated for 4 hours at 37° C. The cells were solubilized by incubation with 100 μl of HCl 0.5N in isopropanol for 15 hours at 37° C. The optical density of this solution was measured at 570 nm and the percentage of viable cells estimated by comparison with untreated control cells.

SMILES: CC1(C)CC(Oc2nsnc2C(=O)O)CC(C)(C)N1O.Cl
- melting point: 209.1 °C (dec.)

SMILES: CC1(C)CC(Oc2nsnc2N2CCN(C(=O)c3ccco3)CC2)CC(C)(C)N1O.Cl
- melting point: 198.1 °C (dec.)

SMILES: CC1(C)CC(Oc2nc3ccccc3s2)CC(C)(C)N1O.Cl
- melting point: 160 °C (dec.)

SMILES: CC1(C)CC(Oc2nc3ccc(F)cc3s2)CC(C)(C)N1O.Cl
- melting point: 178 °C (dec.)

SMILES: CC1(C)C=C(COc2ccccc2N2CCOCC2)C(C)(C)N1O.Cl
- melting point: 155.7 °C (dec.)

SMILES: Cc1c(C)c2c(c(C)c1O)CCC(C)(C(=O)NC1CC(C)(C)N(O)C(C)(C)C1)O2.Cl (centres unmarked)
- melting point: 174.9 °C (dec.)

SMILES: COc1cc2c(cc1OC)CN(c1nsnc1OC1CC(C)(C)N(O)C(C)(C)C1)CC2.Cl
- melting point: 166.9 °C (dec.)

SMILES: CC1(C)CC(Nc2nc3ccccc3s2)CC(C)(C)N1O.Cl
- melting point: 183 °C (dec.)

SMILES: COc1ccc2nc(NC3CC(C)(C)N(O)C(C)(C)C3)sc2c1.Cl
- melting point: 220 °C (dec.)

SMILES: CC1(C)c2ccc(Br)cc2C(C)(C)N1O.Cl
- melting point: 214.1 °C

SMILES: CC(C)(C)OC(=O)c1nsnc1OC1CC(C)(C)N(O)C(C)(C)C1.Cl
- melting point: 197 °C (dec.)

SMILES: CC1(C)C=C(CO)C(C)(C)N1O (as salt: chloride) [Compound 8]
- melting point: 141.9 °C (dec.)

SMILES: CC1(C)CC(Oc2nsnc2C#N)CC(C)(C)N1O (as salt: hydrochloride) [Compound 45]
- melting point: 179.2 °C (dec.)

SMILES: Cc1nsnc1OCC1=CC(C)(C)N(O)C1(C)C (as salt: hydrochloride) [Compound 47, 3-((1-hydroxy-2,5-dihydro-2,2,5,5-tetramethyl-1H-pyrrol-3-yl)methoxy)-4-methyl-1,2,5-thiadiazole]
- melting point: 173.2 °C

SMILES: CC1(C)CC(NC(=O)CCCCC2CCSS2)CC(C)(C)N1O (centres unmarked) (as salt: hydrochloride) [Compound 49, 5-(1,2-dithialan-3-yl)-N-(1-hydroxy-2,2,6,6-tetramethylpiperidin-4-yl)pentanamide]
- melting point: 164.7 °C (dec.)

SMILES: CC(C)c1nsnc1OCC1=CC(C)(C)N(O)C1(C)C (as salt: hydrochloride) [Compound 51]
- melting point: 155.7 °C

SMILES: CC1(C)CC(O)C(C)(C)N1O (centres unmarked) (as salt: salt) [Compound 7, 2,2,5,5-Tetramethyl-Pyrrolidine-1,3-diol]
- melting point: 155.5 °C (dec.)

SMILES: CC1(C)CC(NS(C)(=O)=O)CC(C)(C)N1O (as salt: salt) [Compound 10, 1-hydroxy-4-methanesulfonamido-2,2,6,6-tetramethylpiperidine]
- melting point: 178.3 °C (dec.)

SMILES: CC1(C)CC(O)C(Br)C(C)(C)N1O (centres unmarked) [Compound 9, 3-Bromo-2,2,6,6-tetramethyl-piperidine-1,4-diol]
- melting point: 138.5 °C (dec.)
- Percent inhibition of angiogenesis in CAM model at 30 ug [1]: 82.2%
- Mean OD (×10^−3), cancer cell viability ([2]; Dox. 10^−6 M present (+)): 234.75 ×10^−3
- Mean OD (×10^−3), cancer cell viability ([2]; Dox. absent (−)): 509.00 ×10^−3

SMILES: CC1(C)CC(C#N)CC(C)(C)N1O.Cl [Compound 12, 4-cyano-1-hydroxyl-2,2,6,6-tetramethylpiperidine]
- melting point: 186 °C (dec.)
- Mean OD (×10^−3), cancer cell viability ([2]; Dox. 10^−6 M present (+)): 287.25 ×10^−3
- Mean OD (×10^−3), cancer cell viability ([2]; Dox. absent (−)): 539.25 ×10^−3

SMILES: CC1(C)CC(Cl)CC(C)(C)N1O.Cl [Compound 21, 4-chloro-1-hydroxy-2,2,6,6-tetramethylpiperidine]
- melting point: 201.8 °C (dec.)
- Percent inhibition of angiogenesis in CAM model at 30 ug [1]: 60.9%
- Mean OD (×10^−3), cancer cell viability ([2]; Dox. 10^−6 M present (+)): 99.25 ×10^−3
- Mean OD (×10^−3), cancer cell viability ([2]; Dox. absent (−)): 492.75 ×10^−3

SMILES: CC1(C)COC(=O)C(C)(C)N1O.Cl [Compound 39, N-Hydroxyl-3,3,5,5-tetramethylmorpholin-2-one]
- melting point: 145 °C (dec.)
- Percent inhibition of angiogenesis in CAM model at 30 ug [1]: 96.9%
- Mean OD (×10^−3), cancer cell viability ([2]; Dox. 10^−6 M present (+)): 311.00 ×10^−3
- Mean OD (×10^−3), cancer cell viability ([2]; Dox. absent (−)): 1201.00 ×10^−3

SMILES: CCCCC1(O)CC(C)(C)N(O)C(C)(C)C1.Cl [Compound 41, 1,4-dihydroxy-4-n-butyl-2,2,6,6-tetramethylpiperidine]
- melting point: 187 °C (dec.)
- Percent inhibition of angiogenesis in CAM model at 30 ug [1]: 84.4%
- Mean OD (×10^−3), cancer cell viability ([2]; Dox. 10^−6 M present (+)): 261.25 ×10^−3
- Mean OD (×10^−3), cancer cell viability ([2]; Dox. absent (−)): 824.75 ×10^−3

SMILES: CC1(C)CC(O)(c2ccccc2)CC(C)(C)N1O.Cl [Compound 42, 1,4-Dihydroxy-4-phenyl-2,2,6,6-tetrmethylpiperidine]
- melting point: 201.7 °C (dec.)
- Percent inhibition of angiogenesis in CAM model at 30 ug [1]: 61.9%
- Mean OD (×10^−3), cancer cell viability ([2]; Dox. 10^−6 M present (+)): 311.00 ×10^−3
- Mean OD (×10^−3), cancer cell viability ([2]; Dox. absent (−)): 1068.67 ×10^−3

SMILES: CC1(C)CC(Oc2nsnc2N2CCSCC2)CC(C)(C)N1O.Cl [Compound 55, 4-(4-(1-hydroxy-2,2,6,6-tetramethylpiperidin-4-yloxy)-1,2,5-thiadiazol-3-yl)thiomorpholine]
- melting point: 218 °C (dec.)
- Mean OD (×10^−3), cancer cell viability ([2]; Dox. 10^−6 M present (+)): 285.75 ×10^−3
- Mean OD (×10^−3), cancer cell viability ([2]; Dox. absent (−)): 1037.25 ×10^−3

SMILES: CC1(C)CC(=CC(=O)N2CCN(c3ccccc3)CC2)CC(C)(C)N1O [Compound 56]
- Percent inhibition of angiogenesis in CAM model at 30 ug [1]: 66.1%
- Mean OD (×10^−3), cancer cell viability ([2]; Dox. 10^−6 M present (+)): 308.75 ×10^−3
- Mean OD (×10^−3), cancer cell viability ([2]; Dox. absent (−)): 1153.00 ×10^−3

SMILES: CC1(C)C(CO)=C(c2ccc(F)cc2)C(C)(C)N1O.Cl [Compound 59, (4-(4-fluorophenyl)-1-hydroxy-2,5-dihydro-2,2,5,5-tetramethyl-1H-pyrrol-3-yl)methanol]
- Percent inhibition of angiogenesis in CAM model at 30 ug [1]: 53%
- Mean OD (×10^−3), cancer cell viability ([2]; Dox. 10^−6 M present (+)): 352.00 ×10^−3
- Mean OD (×10^−3), cancer cell viability ([2]; Dox. absent (−)): 1105.00 ×10^−3
